Assay results from patent publication US20210386828A1, “METHODS FOR ENHANCING CANCER IMMUNOTHERAPY” (The Regents of the University of California, priority 2018, published 2021).
Like-named read-outs stand apart in the source and are kept apart here.

What was measured:
Myc-CaP cells [1] = assay: Surface MHC (H-2Kq) expression by flow cytometry; format: cell-based, mouse; conditions: for surface expression of H-2Kq: agent as named; for effect on the H-2Kq response to IFNγ: platinoid plus IFNγ
Excerpt: (§1) Each dot represents an experiment and horizontal lines denote the median.

Myc-CaP cells [2] = assay: qRT-PCR of MHC-I component mRNAs in Myc-CaP cells; format: cell-based, mouse; conditions: for effect of exogenous IFNγ on induction of MHC-I antigen presentation and processing genes by the platinoid: plus IFNγ
Excerpt: as §1

MC-38 cells = assay: Mass spectrometry peptidomic profiling of H-2Kb and H-2Db bound peptides; format: cell-based, mouse; conditions: H-2Db experiment
Method: Tubulin was used as loading control.
To confirm the ability of Oxali to potentiate antigen presentation, mass spectrometry-based peptidomic profiling of H-2Kb and H-2Db molecules isolated from MC-38 cells was conducted.

Myc-CaP cells [3] = assay: ATAC-seq of chromatin accessibility; format: cell-based, mouse; conditions: for accessibility of transcription factor binding sites at the Nfkb1 locus: 2 μM Oxali, 1 ng/mL IFNγ
Excerpt: FIGS. 4A-4D are pictorial and graphical diagrams showing low dose Oxali alters chromatin accessibility of MHC-I related genes. […] The Venn diagram compares gene expression between untreated and differently treated cells (left). The heat map depicts differentially expressed genes involved in the indicated pathways (right). […] The Venn diagram presents the number of binding site changes and overlaps after each treatment (left). FIGS. 4C-4D show detailed ATAC seq analyses of the Nfkb1 gene (FIG. 4C) and a mouse Chr17 gene cluster containing Psmb8, Psmb9, Tap1 and Tap2 (FIG. 4D). Changes in transcription factor (TF) binding site accessibility are compared to RNA seq results. The affected TF binding sites are depicted below each panel.
FIGS. 12A-12C are pictorial and graphical diagrams showing that low dose Oxali enhances chromatin accessibility of MHC-I related genes.
To better understand the transcriptional mechanisms underlying the response to Oxali, RNA-seq and ATAC-seq analyses were conducted on Myc-CaP cells that were incubated with either 2 μM Oxali, 1 ng/mL IFNγ, or a combination of the two. By coupling ATAC-seq, a method for assessing transcription factor binding site accessibility (Buenrostro et al., 2015), with RNA-seq, transcription factor loading can be correlated with actual transcriptional changes.
Of note, the NF-κB pathway, represented by the Nfkb1 gene, was stimulated by Oxali but not IFNγ. […] To examine activation of the antigen processing and presentation pathway, a gene cluster on mouse chromosome 17 harboring Psmb9, Tap1, Psmb8, and Tap2 was analyzed. […] However, IFNγ further enhanced transcription factor accessibility in Oxali-treated cells (FIG. 4D), an effect that was consistent with the transcriptomic analysis (FIG. 4A). […] Similarly, the Erap1 locus, which is induced by both Oxali and IFNγ, was made more accessible by Oxali relative to IFNγ treatment (FIG. 12C). […] The addition of IFNγ expanded this response to include E2F6, JUNB, HIF-lb, KLF3, and DMRT6 binding sites. Of note, the chromosome 17 MHC-I region opened by Oxali contained recognition sites for BORIS and CTCF, two general transcription factors responsible for chromatin opening (Li et al., 2012).

p300/CBP = assay: p300 immunoblot and imaging; format: cell-based, mouse
Myc-CaP cells [4] = assay: Stress, DNA damage and type I IFN responses (IB, qRT-PCR)
Excerpt: (§3) CRISPR-Cas9 was used to ablate cyclic GMP-AMP synthase (cGAS, encoded by Mb21d1) and Ifnar2 (FIG. 11K).

Myc-CaP cells [5] = assay: Immunoblot of IRF1 and phosphorylated STAT1; format: cell-based, mouse; conditions: for IRF1 expression: Oxali at 2 μM; for effect on IRF1 induction by IFNγ: added to IFNγ; for STAT1 phosphorylation: added to IFNγ-treated cells
Excerpt: Protein loading was confirmed with tubulin antibodies.
The basis for the synergy between low-dose Oxali and IFNγ was investigated. […] Given the ability of Oxali to induce Ifngr2 mRNA expression, not only in Myc-CaP cells (FIG. 2D) but also in mouse and human melanoma cell lines (FIGS. 11C and 11D), it was postulated that the synergistic activation of IRF1 and STAT1 by Oxali plus IFNγ may be due to IFNγR2 induction.

Myc-CaP cells [6] = system: Myc-CaP cells
Excerpt: as §3

Myc-CaP cells [7] = assay: Nuclear abundance of transcription factors (IB, flow cytometry); format: cell-based, mouse; conditions: 2 μM Oxali
[8] = system: Myc-CaP and TRAMP-C2 cells; assay: RNA-seq of mouse PCa cells incubated with platinoids; format: cell-based
Method: FIGS. 1E-1G show total RNA from Myc-CaP cells incubated with indicated agents for 24 hr was subjected to RNA-seq. Top 20 hallmark gene sets were sorted by normalized enrichment score (NES). Immune-related gene sets are in blue (IFNγ signaling in light blue).
The top 20 hallmark gene sets sorted by normalized enrichment score (NES) are shown to depict the Oxali- and Cis-induced responses determined by GSEA analysis. Immune-related gene sets are colored blue (IFNγ signaling in light blue). […] Immune-related gene sets are in blue (IFNγ signaling in light blue).
To investigate how low-dose Oxali affects the PCa transcriptome, RNA sequencing (RNA-seq) was conducted on mouse PCa cells (Myc-CaP and TRAMP-C2) incubated with 2 μM of either Oxali or Cisplatin (Cis), a platinoid that, unlike Oxali, minimally enhances the response to PD-L1 blockade or ISP ablation (Pfirschke et al., 2016; Shalapour et al., 2015).

[9] = system: s.c. Myc-CaP, B16 or YUMM1.7 tumors; assay: Growth of subcutaneous tumors in mice under weekly Oxali and/or anti-PD-L1; format: in vivo, mouse
Method: (§2) FIGS. 7A-7G are pictorial and graphical diagrams showing that IFNγR2 induction is needed for the Oxali-potentiated response to anti-PDL1 therapy. […] After four treatment cycles, during which tumor size was measured, the mice were euthanized and analyzed. Significance was determined by Mann-Whitney and t-tests. Transient Cas9 expression was used to avoid any immune response to Cas9-molecules.
FIGS. 14A-14J are graphical diagrams showing that IFNγR2 expression is needed for platinoid-enhanced anti-PD-L1 responsiveness. […] After three cycles, the mice were euthanized, and tumor volume was determined. Significance was determined by t-tests (n=3). […] Tumor volume was determined using caliper. After three treatment cycles, the mice were euthanized and analyzed. Significance was determined by t-tests. Dots show averages and the brackets indicate±SEM (n=3). […] Each dot represents a mouse and each horizontal line indicates mean±SEM. […] Transient Cas9 expression was used to avoid any immune response to Cas9. Tumor growth was monitored using a caliper and analyzed using t-test. Each dot represents average and the brackets are SEM (n=3-5). […] Each dot represents a mouse and each horizontal line indicates the median.
The synergistic inhibition of Myc-CaP tumor growth by Oxali+anti-PD-L1 was attenuated by IFNγR2 ablation (FIGS. 7A and 14E). […]

s.c. Myc-CaP tumors = assay: qRT-PCR of total tumor RNA from treated mice; format: in vivo, mouse; conditions: low-dose
Method: as §2
The synergistic inhibition of Myc-CaP tumor growth by Oxali+anti-PD-L1 was attenuated by IFNγR2 ablation (FIGS. 7A and 14E). […] Importantly, Psmb9, Tap1, and Nlrc5 induction by Oxali+anti-PD-L1 was almost completely abolished after IFNγR2 ablation in Myc-CaP cells (FIGS. 7C and 14F). Oxali+anti-PD-L1 induced MHC-I (H-2Kq and H-2Dd) surface expression by tumor cells, which was also abolished by IFNγR2 ablation (FIG. 7D). Oxali+anti-PD-L1 had no effect on surface MHC-I (H-2Kq) or PD-L1 expression by tumor-infiltrating CD11b^+ myeloid cells in vivo (FIGS. 14G and 14H). […] Thus, Oxali-induced upregulation of MHC-I genes in malignant cells is important for the final recognition and killing stage of the cancer-immunity cycle (Chen and Mellman, 2013) but has no role in ICI-induced CTL reinvigoration.

[10] = system: Ifngr2, Tap1 and Psmb8 promoters; assay: ChIP analysis of promoters
[11] = system: PC3, WM793, MIA PaCa-2, NSCLC and melanoma cell lines
Method: The stained cells were examined by indirect immunofluorescence. […] Surface HLA-ABC expression was determined by flow cytometry.

[12] = system: bone marrow (BM)-derived macrophages; assay: Bone marrow derived macrophages, qRT-PCR and flow cytometry; format: cell-based, mouse
[13] = Cell death in vitro at the low Oxali dose; format: cell-based; conditions: Oxali dose used in the experiments (low dose)
Excerpt: Thus, for purposed of this disclosure, the term “low dose” may include a non-ICD amount of a cytostatic agent or a platinoid.
In the past, Oxali was studied as a prototype of anticancer drugs that are capable of inducing immunogenic cell death (ICD) and T-cell priming (Galluzzi et al., 2015). However, the exact mechanism of ICD induction is poorly defined, and it is not clear whether Oxali and similar drugs exert their immunogenic activity solely via ICD. Other studies have reported Oxali and several other platinoids to function as inducers of the integrated stress response (ISR) (Bruno et al., 2017; Kepp et al., 2015). Nevertheless, the mechanism of ISR activation by platinoids and its relevance for their immunostimulatory activity is unknown. […] Oxali treatment also results in induction of Interferon gamma receptor 2 (IFNγR2), through NF-κB signaling, which potentiates the response of MHC-I-expressing cancer cells to IFNγ produced by CD8^+ T cells that have been reinvigorated by ICI administration.

Myc-CaP and TRC2 cells = assay: Immunoblot of immunoproteasome subunits PSMB8 and PSMB9; conditions: low-dose
[14] = system: TRC2 cells expressing ovalbumin variants; conditions: Oxali-treated TRC2-N4 cells with OT-I CD8+ T cells
Method: FIGS. 2J-2L show TRC2 cells stable transfected with vectors expressing high, medium, and low affinity variants of Ovalbumin were incubated with 4 μM Oxali and/or CFSE-labeled OT-I cells for 72 hr and analyzed by flow cytometry using an antibody that recognizes [sequence] (SEQ ID NO: 24) bound to H-2Kb (FIG. 2J). The number of OT-I cells in each culture (FIG. 2K) and percentage of vital TRC2 cells (FIG. 2L) were determined by flow cytometry.

LMP7 (PSMB8) = assay: Lysate LMP7 (PSMB8) immunoproteasome activity with specific fluorogenic peptide substrate; format: cell-based, mouse; conditions: low-dose
Method: Lysate LMP7 (PSMB8) immunoproteasome activity was measured using LMP7 (PSMB8) specific fluorogenic peptide substrate. […] Each dot is a single experiment and horizontal lines are the medians.

[15] = system: histone acetyltransferase (HAT); assay: HAT activity in lysates of treated cells
HDACs = assay: HDAC enzyme activity in extracts of treated cells; conditions: after 6 hours
[16] = cells incubated with Oxali or Oxali+IFNγ

N.N.O=C([O-])C1(C(=O)[O-])CCC1.[Pt+2] [Carbo, carboplatin]
surface expression of H-2Kq (Myc-CaP cells [1]): barely induced surface H-2Kq
effect on the H-2Kq response to IFNγ (Myc-CaP cells [1]): potentiated the response to IFNγ
effect of exogenous IFNγ on induction of MHC-I antigen presentation and processing genes by the platinoid (Myc-CaP cells [2]): not as strong as that of Oxali+IFNγ

IFNγ: exogenous interferon gamma
amounts of H-2Db MHC-I-bound peptides (MC-38 cells): higher amounts of MHC-I-bound peptides than Oxali treated cells
effect on MHC-I genes compared with low-dose Oxali (Myc-CaP cells [2]; IFNγ at 200 pg/mL, Myc-CaP and other cell lines): weaker than the effect of low-dose (2 μM) Oxali
Ifngr2 mRNA (Myc-CaP cells [2]; IFNγ on its own, any of the analyzed cell lines): did not induce
transcription factor accessibility of chromosome 17 cluster Psmb9, Tap1, Psmb8, Tap2 (Myc-CaP cells [3]): barely affected
accessibility of transcription factor binding sites at the Nfkb1 locus (Myc-CaP cells [3]): barely had any effect
nuclear foci / nucleolar localization of p300 (p300/CBP; high resolution imaging): not
eIF2α phosphorylation and CHOP expression (Myc-CaP cells [4]): no effect
IRF1 expression (Myc-CaP cells [5]): weak IRF1 induction

COc1c(Cl)cc2c([nH]c3cnccc32)c1NC(=O)c1cccnc1C [ML120B]
H-2Kq surface expression under IKKβ inhibition (Myc-CaP cells [1]; [16]): reduced
synergistic Psmb9 and Nlrc5 mRNA induction under IKKβ inhibition (Myc-CaP cells [2]; Oxali+IFNγ): attenuated
decrease in Ifngr2 mRNA (Myc-CaP cells [2]; [16]): 4 fold

N.N.[Cl][Pt][Cl] [Cis, Cisplatin]
surface expression of H-2Kq (Myc-CaP cells [1]): barely induced surface H-2Kq
effect on the H-2Kq response to IFNγ (Myc-CaP cells [1]): potentiated the response to IFNγ
effect of exogenous IFNγ on induction of MHC-I antigen presentation and processing genes by the platinoid (Myc-CaP cells [2]): not as strong as that of Oxali+IFNγ
γH2AX, marker of DNA damage (Myc-CaP cells [6]): γH2AX induction
nuclear abundance of p65, NF-κB, CREB1, ATF3, P-ATM and JunB (Myc-CaP cells [7]): more transient and weaker effect
induction of gene set responsive to NF-κB-dependent TNF signaling ([8]; 2 μM, Myc-CaP): strongly induced
effect on IRF1 induction by IFNγ (Myc-CaP cells [5]): strongly potentiated
STAT1 phosphorylation (Myc-CaP cells [5]): dramatically increased

O=C1[O][Pt]2([NH][C@@H]3CCCC[C@H]3[NH]2)[O]C1=O [Oxali, oxaliplatin]
surface expression of H-2Kq (Myc-CaP cells [1]): induced surface expression of H-2Kq
induction of Nlrc5, Psmb9, Tap1, Ifngr2, Tapasin, and Erap1 mRNAs (Myc-CaP cells [2]; 2 μM (Oxali and Cis) or 4 μM (Carbo), among the three platinoids): most efficient induction
Ifngr2 gene expression (Myc-CaP cells [2]; Myc-CaP cells): induced
effect of exogenous IFNγ on induction of MHC-I antigen presentation and processing genes by the platinoid (Myc-CaP cells [2]): strongly potentiated by exogenous IFNγ
transcription factor accessibility of chromosome 17 cluster Psmb9, Tap1, Psmb8, Tap2 (Myc-CaP cells [3]): increased transcription factor accessibility
accessibility of transcription factor binding sites at the Nfkb1 locus (Myc-CaP cells [3]): increased accessibility
nuclear amount of p300 and acetylated p300/CBP (p300/CBP; Myc-CaP cells): enhanced the nuclear expression and acetylation of p300/CBP
eIF2α phosphorylation and CHOP expression (Myc-CaP cells [4]): induced
γH2AX, marker of DNA damage (Myc-CaP cells [4]): γH2AX induction
Ifna, Ifnb and IL1b expression (Myc-CaP cells [4]; 48 hr): increased
subcutaneous (s.c.) tumor growth ([9]; Myc-CaP, B16, or YUMM1.7, weekly treatment): little effect
tumor regression in vivo ([9]; low-dose Oxali alone, mouse models of PCa): did not cause tumor regression in vivo
expression of Ifngr2, Psmb9, Tap1, and Nlrc5 mRNAs in tumors (s.c. Myc-CaP tumors): enhanced expression
H3 acetylation (Lysine 14 and 27) of Psmb8 promotor region [10]: increased H3 acetylation
HLA-ABC surface expression ([11]; MIA PaCa-2 cells): induced HLA-ABC surface expression
Psmb9 and Ifngr2 induction, BRAF (V600E) versus activated NRAS melanoma cells ([11]; panel of human melanoma cell lines): much more responsive
MHC-I machinery component expression [12]: upregulated
MHC-II surface expression ([12]; Oxali alone): did not respond to Oxali alone
MHC-II expression in macrophages co-stimulated with IFNγ ([12]; plus IFNγ): potentiated MHC-II expression
cell death in vitro [13]: 10-15%
PSMB8 and PSMB9 protein expression (Myc-CaP and TRC2 cells): induced
nuclear abundance of p65, NF-κB, CREB1, ATF3, P-ATM and JunB (Myc-CaP cells [7]): persistent increases
induction of gene set responsive to NF-κB-dependent TNF signaling ([8]; 2 μM, Myc-CaP): strongly induced
induction of IFNγ responsive gene set ([8]; 2 μM, compared with Cis): considerably stronger induction
induction of genes of the MHC-I antigen processing and presentation machinery ([8]; low-dose, Myc-CaP): strongly induced
IRF1 expression (Myc-CaP cells [5]): induced
effect on IRF1 induction by IFNγ (Myc-CaP cells [5]): strongly potentiated
STAT1 phosphorylation (Myc-CaP cells [5]): dramatically increased
OT-I T-cell activation and tumor cell killing [14]: led to T-cell activation, resulting in tumor cell killing
immunoproteasome activity, hydrolysis of LMP7 (PSMB8)-specific substrate (LMP7 (PSMB8)): stimulated
increase in nuclear HAT activity ([15]; after 3 hr of Oxali addition): 4 fold
HAT enzymatic activity ([15]; within 3 hr): increased
effect on HDACs in cytoplasm (HDACs): inhibitory effect

Cc1[nH]c2ccccc2c1CCNCc1ccc(/C=C/C(=O)NO)cc1 [Panabinostat]
surface H-2Kq expression on addition of low dose Oxali (Myc-CaP cells [1]; Panabinostat plus low dose Oxali): potentiated
surface expression of H-2Kq (Myc-CaP cells [1]): induced
transcriptional response (MHC-I gene induction) compared with low dose Oxali (Myc-CaP cells [2]; HDAC inhibitor): nearly the same transcriptional response as low dose Oxali
Tap1, Nlrc5, Tapasin, Lmp2, and Ifngr2 mRNAs (Myc-CaP cells [2]; dose that did not induce cell death): induced
